Measurements taken from patent US20230321105A1, “CELL SIGNAL DETECTION AND MODULATION IN DISEASE” (Washington University, priority 2022, published 2023).

What was measured:
[1] = system: glioma; settings: STAT3 inhibitor and irradiation vs either treatment alone; glioma preclinical study; cited from earlier work
[2] = system: LL2/B3a tumors; assay: LL2/B3a tumors treated with Serpinb3a siRNA with or without 10 Gy RT; type: in vivo, C57/BL6 mice
Method: Single-cell suspensions were blocked with either Human TruStain FcX Solution (422301, Biolegend) or mouse TruStain FcX PLUS (anti-mouse CD16/32) Antibody (S17011E, Biolegend) to avoid nonspecific Fc receptor binding and stained with LIVE/DEADFixable Dead Cell Stain Kit (MACS) to exclude dead cells. For surface staining, cells were incubated with the appropriate antibodies for 30 min at 4° C. Intracellular cytokine and nuclear staining was performed after surface staining using Cyto-Fast Fix/Perm Buffer Set and True-Nuclear Transcription Factor Buffer Set, respectively (BioLegend). Data analysis including viSNE and FlowJo plugin FlowSOM were performed on FlowJo v.10 (TreeStar). A range of 20,000 to 60,000 live cells was acquired and individual flow cytometry data from each group were combined into a single data file for generating viSNE. Color-coded subpopulations were gated by pre-defined markers for each immune cell type and overlaid to the viSNE plots for total CD45+ cells from tumors. All flow cytometry gating plots, histograms, and statistics were generated on FlowJo.
For xenograft models, female athymic nude mice aged 6-7 weeks old (Charles River) were injected subcutaneously with 5×10^6 Caski/Ctrl or Caski/B3 cells suspended in serum-free IMDM and 50% Matrigel Basement Membrane Matrix (Corning) to a final volume of 100 μl on their flank. For immunocompetent models, female C57/BL6 mice aged 7-8 weeks (Charles River) were injected subcutaneously with 5×10^5 LL2/Ctrl or LL2/B3a cells suspended in 100 μl of PBS into the right flank. To deplete myeloid cells, mice were treated with anti-CD11b antibody (Ultra-LEAF purified anti-mouse CD11b, Biolegend) or isotype IgG2b as control (Ultra-LEAF purified rat IgG2b, Biolegend). Antibodies were administered through intraperitoneal injection at the initial dose of 300 μg in 150 μl PBS on day 10 post-tumor inoculation, and a subsequent dose of 150 μg in 100 μl PBS every three days. To knock down Serpinb3a, mice received either mSerpinb3a siRNA (5′-ACAUCGAAUUUAACUUCAUtt-3′; 5′-AUGAAGUUAAAUUCGAUGUtt-3′; ID:s73336, Thermo) or control siRNA (Ambion in vivo negative control #1 Thermo) complexed with Invivofectamine 3 (Thermo Fisher) as per manufacturer's protocol. Mice received three intratumoral injections of 10 μg siRNA on days 9, 11, and 13 post-tumor inoculation before radiation treatment performed on day 14. On days 16 and 19, mice received 20 μg siRNA via intraperitoneal injection. For radiation treatment, mice were randomized to receive sham or 10Gy RT using the Xstrahl Small Animal Radiation Research Platform (SARRP) 200 (Xstrahl Life Sciences). Tumor volume was measured twice weekly and calculated by (length×width2)/2. For tissue dissociation, tumors were manually dissected and digested with 1 mg/ml Collagenase, 0.5 mg/ml hyaluronidase, and 10 mg/mL DNase I type IV (Sigma), and transferred to a tissue disaggregator (Medicon, BectonDickinson) using a CTSV (Medimachine II, BectonDickinson) and tissue homogenates were filtered through a 100 μm strainer. Spleens were dissociated by being pressed through a 70 μm filter. Animal work was approved by the Washington University Institute Institutional Animal Care and Use Committee (Protocol #20-0470).
T cells isolated using MojoSort mouse CD3 T cell isolation kit (Biolegend) were labeled with CellTrace violet and activated with CD3/CD28 Dynabeads (Thermo Fisher) for 4 days to evaluate proliferation. To examine TNF and IFNr, T cells were stimulated with 500× Cell Activation Cocktail containing 40.5 μM phorbol-12-myristate 13-acetate (PMA) and 669.3 μM ionomycin (Biolegend) in the presence of 5 μg/mL BFA (Biolegend) for 5 h and stained with surface/intracellular markers for FACS analysis.
Cell culture supernatant was collected at 48 h after fresh media was added to the adherent cells in a monolayer. Cell lysates were prepared using NP-40 buffer (Alfa Aesar). […]

[3] = system: pSTAT3 (Tyr705) and CD11b; assay: Immunohistochemistry of mouse tumors treated with Serpinb3a siRNA; type: in vivo
Method: Pretreatment serum SCCA was evaluated by ARUP National Reference Laboratory (Salt Lake City, UT, USA) using ELISA, and tissue microarrays were generated from untreated human tumor specimens. TMA sections were sent to HistoWiz Inc for IHC staining for CD11b (1:100, Abcam ab224800) and IHC for pSTAT3 (1:200, Sigma SAB4300033) was performed by Washington University AMP Core Labs. Mouse tumor sections were stained with pSTAT3 (1:150, Invitrogen PA5-121259) and CD11b (1:500, Invitrogen PA5-79532), using a Pierce peroxidase IHC detection kit (Thermo Fisher). QuPath V0.3.2 software was used for automated analysis using surface and cytoplasmic staining to determine the percent cells positive for CD11b. The staining scores for pSTAT3 were evaluated by the pathologist and calculated by (% of positively stained tumor cells x staining intensity ranged from 0-3). Values from at least two cores from each sample were considered valid and an average score was taken.

[4] = system: Serpinb3a; assay: Knockdown of Serpinb3a in tumors by qPCR; type: in vivo, mouse; settings: siB3-treated LL2/B3a tumors; average
Method: For xenograft models, female athymic nude mice aged 6-7 weeks old (Charles River) were injected subcutaneously with 5×10^6 Caski/Ctrl or Caski/B3 cells suspended in serum-free IMDM and 50% Matrigel Basement Membrane Matrix (Corning) to a final volume of 100 μl on their flank. For immunocompetent models, female C57/BL6 mice aged 7-8 weeks (Charles River) were injected subcutaneously with 5×10^5 LL2/Ctrl or LL2/B3a cells suspended in 100 μl of PBS into the right flank. To deplete myeloid cells, mice were treated with anti-CD11b antibody (Ultra-LEAF purified anti-mouse CD11b, Biolegend) or isotype IgG2b as control (Ultra-LEAF purified rat IgG2b, Biolegend). […] Tumor volume was measured twice weekly and calculated by (length×width2)/2. […]
Lipofectamine RNAiMAX (Thermo Fisher) was used for STAT1 siRNA (ID: SASI_Hs02_00343387, SASI_Hs01_00098937, Sigma), STAT3 siRNA (ID: SASI_Hs01_00121206, SASI_Hs01_00061860, Sigma), and negative control siRNA (SIC001, Sigma) transfection, according to the manufacturer's instructions. […] Quantitative polymerase chain reaction (qPCR) was performed using PowerUp SYBR green PCR Master Mix (Applied Biosystems) and the Applied Biosystems 7900 Fast real-time PCR system and software. Each sample was performed in triplicate, gene expression levels were normalized to GAPDH, and fold changes were calculated using the ΔΔCt method. […]

| Compound | survival [1] | PD-1 in CD8+ T cells ([2]; RT/siB3 vs RT/siNC) | tumor growth inhibition ([2]; combination of Serpinb3a knockdown with 10 Gy RT (RT/siB3)) | tumor growth ([2]; sham siB3-treated vs sham siNC-treated tumors) | CTLA-4 in CD8+ T cells ([2]; sham/RT siB3 vs siNC tumors) | ratio of CD8/Treg ([2]; sham/RT siB3 vs siNC tumors) | CD8+ T cells in tumors ([2]; sham/siB3 tumors) | M-MDSCs, PMN-MDSCs, and M2 macrophages in tumors ([2]; sham/siB3 vs sham/siNC tumors, flow cytometry) | expression of CXCL1, and S100A8/A9 in tumor homogenates ([2]; sham/siNC vs. sham/siB3, ELISA) | proliferative capacity of CD8+ T cells upon anti-CD3/28 stimulation ([2]; siB3 tumor-derived vs siNC tumor-derived) | expression of granzyme B and perforin in CD8+ T cells ([2]; siB3 tumors) | expression of granzyme B and perforin in CD8+ T cells ([2]; siB3 tumors with radiation treatment) | pSTAT3 expression (immunostaining of pSTAT3(Tyr705)) ([3]; LL2/B3a+siB3 tumors) | CD11b+ myeloid cell infiltration ([3]; Serpinb3a knockdown tumors) | decrease of Serpinb3a RNA expression in tumors [4] [%] |
| --- | --- | --- | --- | --- | --- | --- | --- | --- | --- | --- | --- | --- | --- | --- | --- |
| C[C@H](NC(=O)/C(C#N)=C/c1cccc(Br)n1)c1ccccc1 [WP1066] | enhanced survival |  |  |  |  |  |  |  |  |  |  |  |  |  |  |
| siB3: mSerpinb3a siRNA 5′-ACAUCGAAUUUAACUUCAUtt-3′; 5′-AUGAAGUUAAAUUCGAUGUtt-3′; ID:s73336, Thermo, complexed with Invivofectamine 3 (sense ACAUCGAAUUUAACUUCAUTT; antisense AUGAAGUUAAAUUCGAUGUTT; Invivofectamine 3 complex, further chemistry not given here) |  | lower | more significant tumor growth inhibition | Reduced tumor growth | lower | higher ratio | increase | significant reduction | significant decrease | markedly higher proliferative capacity | increased expression | further enhanced | significantly reduced | reduced | 65 |
